Results: patent publication US12678411B2, “Nanoformulations of pazopanib, compositions comprising the same and methods of treating osteoarthritis” (The United States Government as represented by the …, priority 2021, dated 2026)

Assays:
mice [1] = experiment: Mechanical hyperalgesia after intrathecal injection in mice; type: in vivo; details: intrathecal (i.t.) injection
Experimental: VEGF-A induces pain hypersensitivity through effects in the peripheral nervous system (PNS) and central nervous system (CNS). IA injection of Flt1 ligand (but not Flk1 ligand) caused mechanical hypersensitivity within 30 min (FIG. 2), showing that Flt1 ligands can directly activate the PNS to induce pain. Additionally, it was reported that animals with chronic OA pain had increased spinal levels of VEGF-A (FIG. 10). […] Given the similar dose (10 ng) and time course of mechanical hyperalgesia following IA injection (FIG. 2) and i.t. injections of VEGF-A (FIG. 11), VEGF signaling appears to be equally able to induce pain hypersensitivity in the PNS and CNS.

mice [2] = details: cited from earlier work
[3] = tested on: mice with knee joint OA (PMM); experiment: Mechanical allodynia (von Frey) in surgery-induced (PMM) knee OA mice; type: in vivo; details: IA 70 μg/kg twice per week, started at inflammatory pain stage
Experimental: Drugs are intraarticularly injected (twice/week) at 4 weeks after surgery (early OA stage). *p<0.05; **p<0.01; ***p<0.001; ****p<0.0001. PMM=partial medial meniscectomy.
2006; 33(2):348-354; and Kroin J S, et al. Gene. 2016. 10; 591(1): 1-5). Next, outcomes between IA injection of ZD6474 (also known as vandetanib, a selective inhibitor of Flk1, 70 μg/kg, injection frequency: twice per week) and pazopanib (an inhibitor of both Flt1 and Flk1, 70 μg/kg, injection frequency: twice per week) were compared. Twice perweek IA injection of these drugs was started at an inflammatory pain stage (within a week post-surgery) and continued for 12 weeks. After 12 weeks, joints were harvested, histopathological analyses performed, and pathological grading quantified by standard Osteoarthritis Research Society International (OARSI) scoring (1: Healthy, 5: Highly pathologic) (K. O. Vasquez and J. D. Peterson. J Pharmacol Exp Ther 2017, 361:87-98).
Nanoparticles of PEG-PCL (5k-b-6.5k) encapsulating pazopanib were prepared by the flash nanoprecipitation method using a multi-inlet vortex mixer (MIVM) (FIG. 13, nano-PAZ(I)). The resulting composition was intraarticularly injected into the knee joint of mice at the inflammatory pain stage (at one week after OA induction by surgery).

Compound	pain response (mechanical hyperalgesia) (mice [1])	mechanical allodynia after IA injection (mice [2])	time after start of drug injection at which reduction in OA pain was seen [3]
NGF: nerve growth factor, a well-known OA pain mediator	no pain response	acutely increased mechanical allodynia	
COc1cc2c(Nc3ccc(Br)cc3F)ncnc2cc1OCC1CCN(C)CC1 [ZD6474, vandetanib]			5 weeks
